In data set [1] the test system is inducible nitric oxide synthase (iNOS), cyclooxygenase-2 (COX-2). Conditions: cited from earlier work.
For data set [2], the system named is ERK and CREB signaling pathways. The settings on record: cited from earlier work.
The conditions of data set [3]: cited from earlier work.
Data set [4] deals with APP-SL 7-5 Tg mice. The settings on record: daily from 4 to 9 months of age; cited from earlier work.
Data set [5] concerns P-glycoprotein (P-gp). Details: method as in PMID 11098080, PMID 17348674. The settings on record: adriamycin-resistant human myelogenous leukemia cells and Caco-2 cells, talinolol as probe; cited from earlier work.
For data set [6], the target named is T1, BACE1 (Homo sapiens, UniProt P56817).
T1 construct: purchased Invitrogen (Pan Vera, Madison, WI, USA)
The data set is described as follows: BACE1 inhibition kinetics (Dixon and Lineweaver–Burk plots). Format: biochemical. Conditions: for Type of inhibition: Dixon and Lineweaver–Burk plots; for Ki: substrate 250-750 nM, read-out: Ki calculated from the Dixon plots. The protocol: The kinetic mechanisms of the different samples towards BACE1 were determined by the graphical views of Dixon and Lineweaver–Burk plots. The inhibitory constants (Ki) value was defined by interpretation of the Dixon plot, where the value of the x-axis implies -Ki. […] The kinetic parameters were then calculated using Enzyme Kinetic^TM module of SigmaPlot^TM version 12.3 (Systat Software, Inc., San Jose, CA, USA).

Data set [7] has as its target T2, Elastase (Sus scrofa, UniProt P00772).
T2 construct: purchased Sigma-Aldrich (St. Louis, MO, USA)
In words: Elastase assay. The class given is biochemical. The settings on record: read-out: Inhibitory activity (%) against Elastase. The method, then:
(§1) BACE1 inhibition was determined by enzymatic assay using the fluorescent resonance energy transfer (FRET)-based BACE1 kit from Invitrogen (Pan Vera, Madison, WI, USA). α-Secretase (tumor necrosis factor-α converting enzyme, TACE) and substrate were obtained from R&D Systems (Minneapolis, MN, USA). Trypsin, chymotrypsin, elastase, and their substrates were obtained from Sigma-Aldrich (St. Louis, MO, USA). The measurement of fluorescence and optical density was performed with a BioTEK ELISA microplate fluorescence reader FLx 800 and BioTEK ELx 808 (Winooski, VT, USA), respectively.
(§2) BACE1, TACE, chymotrypsin, trypsin and elastase assays were performed according to previous methods. Fluorometric BACE1 and TACE assay were measured using a Rh-[…]-Quencher and Mca-PLAQAV-Dpa-RSSSR-NH2 as substrates. Trypsin, chymotrypsin, and elastase were assayed according to the manual described in the reference using N-benzoyl-L-Arg-pNA, N-benzoyl-L-Tyr-pNA, and N-succinyl-Ala-Ala-Ala-pNA as substrates, respectively.

Data set [8] relates to olfactory bulbectomy-induced memory impairment. The settings on record: administration for 11 days; cited from earlier work.
Data set [9] relates to Trypsin. In words: Trypsin assay. Format: biochemical. The protocol: as §1, §2
In data set [10] the target is T3, α-secretase (tumor necrosis factor-α converting enzyme, TACE) (Homo sapiens, UniProt P78536).
T3 construct: purchased R&D Systems (Minneapolis, MN, USA)
The data set is described as follows: TACE (α-secretase) fluorometric assay. The class given is biochemical. The settings on record: read-out: Inhibitory activity (%) against TACE. The method, then:
as §1, §2

The conditions of data set [11]: cited from earlier work. The source holds these as a separate data set.
Data set [12] deals with 3XTg-AD mice. Conditions: cited from earlier work.
The target in data set [13] is T1, BACE1. In words: FRET-based BACE1 inhibition assay. Conditions: FRET substrate Rh-[…]-Quencher. Format: biochemical. The method, then: as §1, §2
The target in data set [14] is T4, Chymotrypsin (Bos taurus, UniProt P00766).
T4 construct: purchased Sigma-Aldrich (St. Louis, MO, USA)
The data set is described as follows: Chymotrypsin assay. The class given is biochemical. The settings on record: read-out: Inhibitory activity (%) against Chymotrypsin. The protocol:
as §1, §2

Data set [15] concerns cyclic AMP response element-mediated transcription. More on the design: method as in PMID 23588349. Conditions: rat hippocampal neurons; cited from earlier work.
For data set [16] the following is noted: rats, up to 1000 to 3000 mg/kg bw; cited from earlier work.
Data set [17] concerns primary rat microglia and BV-2 microglial cell. The settings on record: LPS-induced; cited from earlier work.
Data set [18] relates to 6-OHDA-lesioned rats. Conditions: 20 mg/kg/day for 4 days before 6-OHDA injection; cited from earlier work.
The conditions of data set [19]: chronic oral administration; cited from earlier work.

T2 sequence (P00772 27-266): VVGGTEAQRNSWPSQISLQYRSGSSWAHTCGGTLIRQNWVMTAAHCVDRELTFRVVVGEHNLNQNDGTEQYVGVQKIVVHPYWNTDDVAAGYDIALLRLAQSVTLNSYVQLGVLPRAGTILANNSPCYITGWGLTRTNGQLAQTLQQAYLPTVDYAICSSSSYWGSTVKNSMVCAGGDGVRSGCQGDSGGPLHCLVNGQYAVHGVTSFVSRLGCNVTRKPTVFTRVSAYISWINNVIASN
T1 sequence (P56817 46-501): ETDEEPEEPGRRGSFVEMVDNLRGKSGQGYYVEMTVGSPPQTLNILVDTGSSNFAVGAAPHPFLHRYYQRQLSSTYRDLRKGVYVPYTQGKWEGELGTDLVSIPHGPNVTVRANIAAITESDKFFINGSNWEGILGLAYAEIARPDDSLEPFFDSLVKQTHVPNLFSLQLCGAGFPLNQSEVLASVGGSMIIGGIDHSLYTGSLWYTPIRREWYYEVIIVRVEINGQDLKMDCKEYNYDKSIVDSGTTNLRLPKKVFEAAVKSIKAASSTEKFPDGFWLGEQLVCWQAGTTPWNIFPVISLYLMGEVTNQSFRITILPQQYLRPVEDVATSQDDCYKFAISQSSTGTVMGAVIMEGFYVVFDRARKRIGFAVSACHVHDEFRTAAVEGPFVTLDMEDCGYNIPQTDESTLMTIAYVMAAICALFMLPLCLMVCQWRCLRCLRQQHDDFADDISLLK
T3 sequence (P78536 215-824): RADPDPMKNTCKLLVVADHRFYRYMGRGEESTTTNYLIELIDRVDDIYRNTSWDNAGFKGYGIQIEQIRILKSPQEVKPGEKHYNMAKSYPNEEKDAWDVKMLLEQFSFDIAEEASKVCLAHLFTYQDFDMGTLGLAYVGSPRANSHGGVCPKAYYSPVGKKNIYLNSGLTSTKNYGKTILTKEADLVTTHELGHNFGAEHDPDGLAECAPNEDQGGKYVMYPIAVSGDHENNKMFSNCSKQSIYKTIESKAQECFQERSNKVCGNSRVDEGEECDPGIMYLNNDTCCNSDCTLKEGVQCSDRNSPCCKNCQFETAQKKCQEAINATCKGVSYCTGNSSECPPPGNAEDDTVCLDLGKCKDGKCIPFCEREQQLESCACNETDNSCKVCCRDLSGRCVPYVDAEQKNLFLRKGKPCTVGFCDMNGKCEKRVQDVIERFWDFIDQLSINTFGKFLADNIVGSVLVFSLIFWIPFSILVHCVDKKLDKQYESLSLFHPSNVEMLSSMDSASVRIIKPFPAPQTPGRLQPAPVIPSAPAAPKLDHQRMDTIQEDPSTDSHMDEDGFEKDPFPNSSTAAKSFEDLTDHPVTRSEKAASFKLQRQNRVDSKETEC

Take `COc1c(OC)c(OC)c2c(=O)cc(-c3ccc(O)c(O)c3)oc2c1OC` [3′,4′-di-DMN]: in data set [1], the “Suppression of gene expression of iNOS and COX-2 relative to parent compound” value was “more efficiently suppressed”.
Turning to `COc1ccc(-c2cc(=O)c3c(OC)c(OC)c(OC)c(OC)c3o2)cc1O` [3′-DMN], the “iNOS inhibition relative to nobiletin” value in data set [1] is given as “more efficiently than nobiletin”.
In the case of `COc1cc(-c2cc(=O)c3c(OC)c(OC)c(OC)c(OC)c3o2)ccc1O` [4′-DMN], the “Phosphorylation of ERK and CREB” value in data set [2] is recorded as “stimulate phosphorylation”. Further, the “Ability to cross the blood–brain barrier (BBB)” value in data set [3] was “able to cross the blood–brain barrier (BBB)”. For the same molecule, the “Suppression of gene expression of iNOS and COX-2 relative to parent compound” value in data set [1] is “more efficiently suppressed”.
The term Ki denotes a measure of affinity in units of concentration, obtained from inhibition or displacement. As a reminder, the IC50 is the concentration at which inhibition is half-maximal. Read a high IC50 as weaker potency. As for `COc1ccc(-c2cc(=O)c3c(OC)c(OC)c(OC)c(OC)c3o2)cc1OC` [Nobiletin, 5,6,7,8,3′,4′-hexamethoxyflavone], in [4], the “Aβ1-42 and Aβ1-40 in the brain” value is on record as “reduced quantity”; the “Memory impairment, context-dependent fear conditioning test” value is “significantly reversed memory impairment”. The P-gp inhibition result in data set [5] is listed as “inhibitory potential with P-gp”. For the same molecule, in data set [6], the Type of inhibition result is “noncompetitive” and the Ki was 34 µM. For the same molecule, in data set [7], the inhibition at 50 µM turned out to be 5.51 ± 1.17% and the inhibition at 100 µM turned out to be 4.49 ± 1%. Further, in [8], the Memory impairment result is “significantly recovered”. Moreover, in data set [9] (50 μM), the “Inhibitory activity (%) against Trypsin” value turned out to be 1.00 ± 0.07%. Further, the “Inhibitory activity (%) against Trypsin” value in data set [9] (100 μM) is recorded as 0.92 ± 0.06%. In data set [10], the inhibition at 50 µM was found to be 5.49 ± 0.34% and the inhibition at 100 µM was 11.6 ± 3.07%. In [11] (mice, oral 50 mg/kg), the “Content in the brain” value is 3.6 mg/kg and the “Content in the brain (molar)” value is listed as “approximately 8.9 µM”. Also, the “Accumulation in the brain versus liver” value in data set [11] (oral administration) is “much higher than that in the liver”. Besides, in data set [12], the “Soluble Aβ1-40 and ROS levels in brain and hippocampus” value is listed as “reduced the levels”. In addition, the IC50 in data set [13] came to 59 µM. Also, in [14], the inhibition at 50 µM is 1.39 ± 0.17% and the inhibition at 100 µM was determined as 1.77 ± 0.06%.
For `COc1ccc(-c2cc(=O)c3c(OC)c(OC)c(OC)cc3o2)cc1OC` [Sinensetin, 5,6,7,3′,4′-pentamethoxyflavone], the CRE-mediated transcription entry in data set [15] is recorded as “activate”. Further, the Type of inhibition entry in data set [6] was “noncompetitive”. Besides, in data set [6], the Ki was 38 µM. The inhibition at 50 µM in data set [7] was 7.4 ± 2.09%; in data set [10], 7.88 ± 1.12%; in [14], 9.08 ± 0.48%. Further, the values for the inhibition at 100 µM in data set [7], in data set [10] and in data set [14] were 11.4 ± 1.38%, 7.19 ± 1.35% and 8.78 ± 0.8%, respectively. The “Inhibitory activity (%) against Trypsin” value in data set [9] (50 μM) was determined as 5.16 ± 0.69%; in [9] (100 μM) it was 4.70 ± 0.58%. In [13], this molecule came in with an IC50 of 63 µM.
For the molecule `COc1ccc(-c2cc(=O)c3c(OC)c(OC)c(OC)c(OC)c3o2)cc1` [Tangeretin, 5,6,7,8,4′-pentamethoxyflavo-ne], the “Death and clinical chemistry in oral acute and sub-acute study” value in [16] is recorded as “no evidence of death nor significant change of clinical chemistry”. For the same molecule, in data set [5], the P-gp inhibition result is “inhibitory potential with P-gp”. The Type of inhibition result in [6] is given as “noncompetitive”. For the same molecule, in [6], the Ki is 37 µM. Further, in data set [17], the Microglial cell activation result is listed as “suppressed”. The inhibition at 50 µM came out at 8.64 ± 0.65% in [7], 8 ± 1% in data set [10] and 5.68 ± 0.86% in [14]. Moreover, the inhibition at 100 µM was determined as 10.6 ± 1.09% in data set [7], 11.3 ± 1.66% in data set [10] and 6.16 ± 0.38% in data set [14]. Moreover, the “Inhibitory activity (%) against Trypsin” value in [9] (50 μM) worked out at 8.10 ± 0.99%; in data set [9] (100 μM), 11.80 ± 1.04%. In data set [18], the “Loss of TH+ cells and striatal dopamine content” value is given as “markedly reduced the loss”. This molecule had a half-maximal inhibitory concentration (IC50) in data set [13] of 49 µM. Moreover, the “Detection in the hippocampus” value in data set [19] was “detected in the hippocampus”.

Values taken from PMC5622733, “Polymethoxyflavones: Novel β-Secretase (BACE1) Inhibitors from Citrus Peels” (Nutrients, 2017).
